In PubChem BioAssay (NCI):
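All cell lines were grown in 96-well plates and treated with compound for 48 hours. TGI: concentration producing complete growth inhibition.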

Assays:
Assay in all cases: NCI anticancer screen, dose series, 48 h
[1] = tested on: RXF 393 renal
[2] = tested on: NCI-H23 lung
[3] = tested on: MDA-MB-435
[4] = tested on: UACC-257 melanoma
[5] = tested on: SF-268 CNS
[6] = tested on: RPMI-8226 leukemia
[7] = tested on: HS 578T breast
[8] = tested on: HOP-62 NSCLC
[9] = tested on: MOLT-4 leukemia
[10] = tested on: CAKI-1 renal
[11] = tested on: MCF7 breast
[12] = tested on: HCT-116 colon
[13] = tested on: UO-31 renal
[14] = tested on: A498 renal
[15] = tested on: ACHN renal
[16] = tested on: HOP-92 NSCLC
[17] = tested on: TK-10 renal
[18] = tested on: SK-MEL-28 melanoma
[19] = tested on: A549 NSCLC
[20] = tested on: SF-539 CNS
[21] = tested on: M14 melanoma
[22] = tested on: U251 CNS
[23] = tested on: SW-620 colon
[24] = tested on: KM12 colon
[25] = tested on: COLO 205 colon
[26] = tested on: OVCAR-5 ovarian
[27] = tested on: IGROV1 ovarian
[28] = tested on: SK-MEL-2 melanoma
[29] = tested on: NCI-H522 lung
[30] = tested on: K-562 leukemia
[31] = tested on: MDA-MB-231 breast
[32] = tested on: SNB-19 CNS
[33] = tested on: HT29 colon
[34] = tested on: NCI/ADR-RES ovarian
[35] = tested on: SNB-75 CNS
[36] = tested on: EKVX NSCLC
[37] = tested on: SK-MEL-5 melanoma
[38] = tested on: SF-295 CNS
[39] = tested on: BT-549 breast
[40] = tested on: HCC-2998 colon
[41] = tested on: T-47D breast
[42] = tested on: DU-145 prostate
[43] = tested on: HCT-15 colon
[44] = tested on: OVCAR-8 ovarian
[45] = tested on: MALME-3M melanoma
[46] = tested on: NCI-H460 lung
[47] = tested on: PC-3 prostate
[48] = tested on: SR leukemia
[49] = tested on: CCRF-CEM leukemia
[50] = tested on: MDA-N
[51] = tested on: OVCAR-4 ovarian
[52] = tested on: SK-OV-3 ovarian
[53] = tested on: NCI-H226 lung
[54] = tested on: HL-60(TB) leukemia
[55] = tested on: UACC-62 melanoma
[56] = tested on: SN12C renal
[57] = tested on: 786-0 renal
[58] = tested on: LOX IMVI melanoma
[59] = tested on: OVCAR-3 ovarian

With COc1ccc(OC)c(C2CCc3nc4nc(N)nc(N)c4cc3C2)c1 (centres undefined) the TGI [1] was 7.45 µM, the TGI [2] was 38.3 µM and the TGI [3] was 4.09 µM. For the same compound, the TGI [4] was 6.1 µM, the TGI [5] was 10.4 µM and the TGI [6] was 19 µM. It also gave a TGI [7] of 16.1 µM, a TGI [8] of 5.04 µM and a TGI [9] of 5.3 µM. For the same compound, the TGI [10] was > 56.2 µM, the TGI [11] was 3.68 µM and the TGI [12] was 3.46 µM. For the same compound, the TGI [13] was 15.8 µM, the TGI [14] was 27.5 µM and the TGI [15] was 29.5 µM. For the same compound, the TGI [16] was 5.76 µM, the TGI [17] was 23.6 µM and the TGI [18] was 6.34 µM. The TGI [19] was 31.4 µM, the TGI [20] was 17.8 µM and the TGI [21] was 3.44 µM. For the same compound, the TGI [22] was 3.28 µM, the TGI [23] was 9.12 µM and the TGI [24] was 5.14 µM. For the same compound, the TGI [25] was 17.9 µM, the TGI [26] was 23.3 µM and the TGI [27] was 26.7 µM. It also gave a TGI [28] of 4.35 µM, a TGI [29] of 4.94 µM and a TGI [30] of 6.35 µM. It also gave a TGI [31] of 5.4 µM, a TGI [32] of 6.01 µM and a TGI [33] of 10.8 µM. The TGI [34] was > 100 µM, the TGI [35] was 4.1 µM and the TGI [36] was 28.1 µM. It also gave a TGI [37] of 18.6 µM, a TGI [38] of 26.5 µM and a TGI [39] of 16.6 µM. For the same compound, the TGI [40] was 3.16 µM, the TGI [41] was 3.78 µM and the TGI [42] was 17.8 µM. The TGI [43] was 47.5 µM, the TGI [44] was 6.93 µM and the TGI [45] was 3.57 µM. For the same compound, the TGI [46] was 19.2 µM, the TGI [47] was 11.5 µM and the TGI [48] was 7.06 µM. It also gave a TGI [49] of 9.44 µM, a TGI [50] of 5.04 µM and a TGI [51] of 4.14 µM. For the same compound, the TGI [52] was 15.3 µM, the TGI [53] was 30.7 µM and the TGI [54] was 7.86 µM. The TGI [55] was 4.18 µM, the TGI [56] was 3.33 µM and the TGI [57] was 6.91 µM. For the same compound, the TGI [58] was 8.14 µM and the TGI [59] was 3.54 µM.
